# Laboratory results from patent US8986758B2, “Method for extracting a traditional herbal medicine component using a polished-rice steaming method” (Amorepacific Corporation, priority 2009, dated 2015).
# How the values were obtained:
# [1] = test system: C57BL/6 mouse-derived pigment cells (Mel-Ab cells); assay: Effect of inhibiting melanin production using mouse pigment cells (Dooley's method); assay type: cell-based; conditions: 72 h, each sample at 10 ppm, Mel-Ab cells cultured 3 days, absorbance at 400 nm
# Procedure: C57BL/6 mouse-derived pigment cells (Mel-Ab cells) (Dooley, T. P. et al., Skin pharmacol, 7, pp. 188-200) are cultured in a DMEM ([…]), to which 10% fetal bovine serum, 100 nM 12-O-tetradecanoylphorbol-13-acetate and 1 nM cholera toxin are added, at 37° C. under 5% CO2. The cultured Mel-Ab cells are released by using 0.25% trypsin-EDTA and incubated on a 24-well plate at a concentration of 10^5 cells/well. From the next day, each test sample is added to culture the cells continuously for 3 days.
# The test samples used herein include hydroquinone, the extract of traditional herbal medicine of Comparative Example 1 and the extract of traditional herbal medicine obtained by polished-rice steaming method according to Example 1. Each sample is used at a concentration of 10 ppm. Hydroquinone is used as a positive control. Then, the culture medium is removed and the cells are washed with phosphate buffered saline (PBS). The cells are subjected to cell lysis using 1N sodium hydroxide and absorbance is determined at 400 nm. The absorbance measurement is used to calculate % inhibition of melanin production according to the following Mathematical Formula 1. The results are shown in the following Table 1 (Dooley's method). % Inhibition of melanin production=100−{(absorbance of each sample/absorbance of control)×100} [Mathematical Formula 1]
# skin = assay: Irritation test on panels sensitive to irritation; assay type: in vivo
# Source text: Particularly, 15 panels sensitive to irritation, such as stinging, burning, etc., are subjected to a test for determining irritation feeling, including stinging, itch and dazzling. […] The results are shown in the following Table 2. <Evaluation Criteria> 0-0.4: No irritation 0.5-1.0: slight irritation 1.1-2.0: mild irritation 2.1-3.0: severe irritation
# [2] = grade 0 to 3.0, 0.5 mL applied onto skin, 15 panels, 0-0.4 no, 0.5-1.0 slight, 1.1-2.0 mild, 2.1-3.0 severe irritation
Compound,inhibition at 10 ppm [1] [%],"Average (skin; average of stinging and burning grades, grade 0 to 3.0, 0-0.4 no, 0.5-1.0 slight irritation)",Burning (skin; [2]),Stinging (skin; [2]),"irritation (in words) (skin; summary of Table 2, 0.5 mL applied onto skin)"
"Oc1ccc(O)cc1 [Hydroquinone, hydroquinone]",58.9,–,–,–,–
"O=c1cc(CO)occ1O [Kojic acid, kojic acid]",–,0.68,0.50,0.85,perceptible degree of irritation
